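In this assay, cells in 96-well plates receive the compound at five concentrations for 48 hours. Endpoints are linearly interpolated between the surrounding concentrations. TGI denotes the concentration required for complete inhibition of growth.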
Tests used:
Experiment in all cases: NCI anticancer screen, dose series, 48 h
[1] = system: HCC-2998 colon
[2] = system: LOX IMVI melanoma
[3] = system: EKVX NSCLC
[4] = system: HT29 colon
[5] = system: OVCAR-4 ovarian
[6] = system: OVCAR-5 ovarian
[7] = system: MDA-N
[8] = system: HOP-92 NSCLC
[9] = system: A549 NSCLC
[10] = system: TK-10 renal

SMILES | TGI [1] [µM] | TGI [2] [µM] | TGI [3] [µM] | TGI [4] [µM] | TGI [5] [µM] | TGI [6] [µM] | TGI [7] [µM] | TGI [8] [µM] | TGI [9] [µM] | TGI [10] [µM]
O=S(=O)(O)c1c(Cl)cc(O)c2ncccc12 | > 100 | > 100 | > 100 | > 100 | > 100 | > 100 | > 100 | > 100 | > 100 | –
CC1=NCCN=C(C)C1N=Nc1ccc2nc(C)[nH]c2c1 | 41.1 | 98.8 | 39.6 | 50.9 | 30.6 | 39.9 | 29.3 | 22.5 | 19.6 | 42.9
O=c1cc(NCCCCCO)[nH]c(=O)[nH]1 | > 100 | > 100 | > 100 | > 100 | > 100 | > 100 | > 100 | > 100 | > 100 | > 100
CCOC(=O)C1(C(N)=O)C(=O)c2ccncc2C1=O (centres undefined) | > 100 | > 100 | > 100 | > 100 | > 100 | > 100 | > 100 | > 100 | > 100 | –
CS(=O)(=O)c1ccc(/C=N/NC(N)=S)cc1 | > 100 | > 100 | > 100 | > 100 | > 100 | > 100 | > 100 | > 100 | > 100 | > 100
CN(C)c1ccc(/C=c2/c3ccccc3n3c2c2ccccc2[n+]3C)cc1 | 3.33 | 1.98 | 23.5 | – | 8.3 | 7.43 | 1.89 | 1.92 | 19.7 | 3.36
O=C1/C(=C/c2ccccc2)CCCC1CN1CCCCC1 (centres undefined) | 29 | 3.3 | 28.8 | 2.98 | 3.83 | 33.8 | 4.13 | 6.05 | 34.9 | 8.02
COc1ccccc1/C=C/C1=NN(c2cccc(S(=O)(=O)O)c2)C2(C1)SCC(=O)N2c1nc2ccccc2s1 (centres undefined) | > 100 | > 100 | > 100 | > 100 | > 100 | > 100 | > 100 | > 100 | > 100 | > 100
O=c1c2cc(-c3ccccc3)sc2nc2n1N=C(c1ccccc1)CS2 | > 100 | > 100 | > 100 | – | 61.4 | > 100 | > 100 | 34.6 | > 100 | > 100
COc1ccc(/C=C2\CCCC(CN(C)C)C2=O)cc1 (centres undefined) | 16.6 | 4 | 24.8 | 3.47 | 4.43 | 23.2 | 8.5 | 8.99 | 33.9 | 9.45
CC1CC(C)C(O)C(C2CC(CC(=O)NC3CCCCC3)CC(=O)O2)C1 (centres undefined) | > 100 | > 100 | > 100 | > 100 | > 100 | > 100 | > 100 | > 100 | > 100 | > 100
Oc1ccc(-c2csc(NNC3=NC/C(=C/c4ccc5c(c4)OCO5)S3)n2)cc1O | > 100 | > 100 | > 100 | > 100 | > 100 | > 100 | > 100 | > 100 | > 100 | 72.4
CC(C)(C)OC(=O)NCCCCC(N)C(N)=O (centres undefined) | > 100 | > 100 | > 100 | > 100 | > 100 | > 100 | > 100 | > 100 | > 100 | > 100
CCC1=NC(N/N=C/c2ccco2)=N/C1=C\c1ccccc1O | 89.8 | > 100 | > 100 | > 100 | 27.8 | > 100 | > 100 | > 100 | > 100 | > 100
Cc1c2c(c(C)n1-c1ccccc1)C(=O)N(CCCCN1CCN(c3ccccc3)CC1)C2=O | 27.1 | 23.5 | 65.7 | 10.1 | 82.5 | > 100 | 31.2 | 46.3 | > 100 | > 100
COc1cc(-c2cn(S(=O)(=O)c3ccc(C)cc3)c3ccccc23)nc(-c2cn(S(=O)(=O)c3ccc(C)cc3)c3ccccc23)n1 | > 100 | > 100 | > 100 | 2 | > 100 | 19.6 | 1.88 | > 60.9 | > 48.8 | > 100
CCCCCC(C)(C)CCC(=O)OC1OC(COC2OC(COC3OC(CO)C(O)C(O)C3O)C(O)C(O)C2O)C(O)C(O)C1O (centres undefined) | > 100 | > 100 | > 100 | > 100 | – | > 100 | > 100 | > 100 | > 100 | > 100
COc1cc2c(/C=C3/C(=O)N(C)c4ccccc43)c(Cl)[nH]c2cc1C | 0.317 | 11.4 | > 47.2 | – | 4.14 | > 57.2 | 0.153 | > 50.1 | 17 | 5.16

— PubChem BioAssay (NCI)
